Experimental data taken from patent US20090047221A1 (NIPRI LIMITED, priority 2004, published 2009).
Read-outs that look alike come from different tables or passages of the source.

Assays:
Assay type in all cases: cell-based
MCF-7 = experiment: MTT assay (anti-proliferative activity); conditions: read-out: IC 50 MCF-7
Method: (§1) The MTT assay was used initially to determine the anti-proliferative activity of the test compounds. In the MTT assay a yellow thiazolyl blue tetrazolium bromide salt (MTT) is reduced, in metabolically active cells, to form insoluble purple formazan crystals which are solubilised by the addition of dimethyl sulphoxide (DMSO).
(§2) Wells containing medium only were used as blanks. Following the attachment period, cells were treated with appropriate drug concentrations (20 μl added per well). 40 mg/ml stock drug solutions, in DMSO, were stored at −20° C. and on the day of drug treatment working solutions of 4 mg/ml were prepared in medium which was further diluted to achieve final drug dilution volumes of 20 μl. Initial screening was determined over a concentration range of 1-200 μg/ml. […] Cells were exposed to drug for 96 h continual exposure (37° C., 5% CO2). Following the 96 h incubation, 50 μl MTT solution (1 g MTT/500 ml PBS) was added per well and the plates were further incubated for 4 h (37° C., 5% CO2). After incubation the MTT and medium was removed from the wells and 100 μl DMSO added per well. Plates were agitated on an orbital mixer platform (Stuart Scientific) for 10 minutes. Absorbance was measured at 570 nm on a Biotrak II (Amersham Bioscience) plate reader. IC50 values were calculated comparing control and drug treated cells.

MDA-MB-468 = experiment: MTT assay (anti-proliferative activity); conditions: read-out: IC 50 MDA-MB-468
Method: as §1, §2

MalMe3M = experiment: MTT assay (anti-proliferative activity); conditions: 96 h continual exposure, read-out: IC 50 MalMe3M
Method: as §1, §2

SkMel28 = experiment: MTT assay (anti-proliferative activity); conditions: read-out: IC 50 SkMel28
Method: as §1, §2

[1] = test system: breast cancer (MDA-MB-468 and MCF-7 cell lines) and melanoma cell lines (MalMe3, SkMe128); experiment: Cell cycle analysis by flow cytometry (propidium iodide); apoptosis as cells in sub G0/G1 (pre G0) peak; conditions: following treatment with IC70 concentration of compound
Method: Assessment of cell cycle analysis was performed using propidium iodide staining of cells and subsequent analysis on a Beckton Dickinson flow cytometer. […] The following day the medium was removed and replaced with 5 ml medium per flask containing the appropriate drug concentrations to be tested. 40 mg/ml stock drug solutions in DMSO were stores at −20° C. and on the day off drug treatment working solutions of 4 mg/ml were prepared in medium from which the final drug dilutions were prepared. Cells were maintained in an incubator (37° C., 5% CO2) for up to 96 h post treatment. After 24, 48, 72 or 96 h time points the medium from each flask was collected, stored on ice, and the remaining cells in the flasks were trypsinised by aiding 1 ml trypsin-EDTA solution to each flask. Cells were replaced into the incubator for 10 min to allow them to detach from the plastic plate. The cells in each flask were collected by adding the appropriate medium removed from each flask back to the corresponding flask and then placing medium containing both the attached and floating cells into a 15 ml tube. Cells were centrifuged at 4° C. for 5 min at 1500 rpm and the supernatant removed from each tube. The remaining cells were washed twice in ice cold PBS and then fixed in ice cold methanol overnight at −20° C. On the day of analysis of cells each tube was centrifuged at 4° C. for 5 min at 1500 rpm and the methanol removed and the cells washed twice in ice cold PBS. 20 μl propidium iodide solution (1 mg/ml) and 20 μl RNase A (10 mg/ml solution) were added to 1 ml PBS per tube and the cells were incubated for 30 min at 37° C. Cells were analysed on the flow cytometer and cell cycle changes were assessed.

[2] = Homo sapiens, MCF7, 96 h continual exposure
[3] = Homo sapiens, MDA-MB-468, 96 h continual exposure
[4] = Homo sapiens, SK-MEL-28, 96 h continual exposure

Compound | IC50 (MCF-7; 96 h continual exposure) [µM] | IC50 (MDA-MB-468; 96 h continual exposure) [µM] | IC50 (MalMe3M) [µM] | IC50 (SkMel28; 96 h continual exposure) [µM] | % Cells in Pre G0 phase of Cell Cycle [1] [%] | IC50 (MCF-7; [2]) [µM] | IC50 (MDA-MB-468; [3]) [µM] | IC50 (MalMe3M; Homo sapiens, Malme-3M) [µM] | IC50 (SkMel28; [4]) [µM]
CC1Cc2ccc(C(=O)NC(Cc3ccccc3)C(=O)OC(C)(C)C)c(O)c2C(=O)O1 (mixture of isomers) [ALM-53, L-Phenyl Alanine Tert-Butyl Ester Amide] | 9.4 | 2.3 | 11.7 | 70.5 | 8.9 |  |  |  | 
CC1Cc2ccc(F)c(O)c2C(=O)O1 (racemic) [ALM-22, Racemic Ortho-Fluoromellein] |  |  |  |  | 16.5 | 173 | 61.2 | 96.8 | 96.8
CC1Cc2ccc(I)c(O)c2C(=O)O1 (racemic) [ALM-25, Racemic Ortho-Iodomellein] |  |  |  |  | 37.0 | 72.3 | 72.3 | 75.6 | 78.9
CC1Cc2ccc(C(=O)NCc3ccccc3)c(O)c2C(=O)O1 (racemic) [ALM-44, Benzyl Amide] | 86.7 | 41.8 | 128 | 270 |  |  |  |  | 
CC1Cc2ccc(C(=O)Nc3ccccc3)c(O)c2C(=O)O1 (racemic) [ALM-45, Aniline Amide] | 26.9 | 10.1 | 33.6 | 172 | 6.4 |  |  |  | 
CC1Cc2ccc(C(=O)n3ccnc3)c(O)c2C(=O)O1 (racemic) [ALM-46, CDI derivative] | > 734 | 73.4 | > 734 | > 734 |  |  |  |  | 
CC1Cc2ccc(C(=O)N3CCCC3)c(O)c2C(=O)O1 (racemic) [ALM-47, Pyrrolidine Amide] | > 726 | 490 | > 726 | > 726 |  |  |  |  | 
CNC(=O)c1ccc2c(c1O)C(=O)OC(C)C2 (racemic) [ALM-48, Methyl Amide] | 268 | 289 | 191 | 502 |  |  |  |  | 
CCCCCCN(C)C(=O)c1ccc2c(c1O)C(=O)OC(C)C2 (racemic) [ALM-50, N-Methyl-N-Hexyl Amide] | 90.8 | 59.5 | 110 | 141 |  |  |  |  | 
CCCCCCCCCCCCNC(=O)c1ccc2c(c1O)C(=O)OC(C)C2 (racemic) [ALM-51, Dodecyl Amide] | 12.8 | 10.3 | 25.7 | 33.4 | 20.6 |  |  |  | 
CCCCCCCC/C=C\CCCCCCCCNC(=O)c1ccc2c(c1O)C(=O)OC(C)C2 (racemic) [ALM-52, Oleyl Amide] | 21.2 | 12.7 | 52.9 | 244 | 19.8 |  |  |  | 
C[C@H]1Cc2cccc(O)c2C(=O)O1 [ALM-10, (3S)-mellein] |  |  |  |  |  | 596 | 317 | 360 | 961
C[C@@H]1Cc2cccc(O)c2C(=O)O1 [ALM-11, (3R)-mellein] |  |  |  |  |  | 961 | 428 | > 960 | 961
COc1cccc2c1C(=O)O[C@@H](C)C2 [ALM-13, (3S)-methoxy mellein] |  |  |  |  |  | > 1040 | 1040 | 822 | > 1040
COc1cccc2c1C(=O)O[C@H](C)C2 [ALM-14, (3R)-methoxy mellein] |  |  |  |  |  | 1040 | > 1040 | > 1040 | > 1040
C[C@@H]1Cc2ccc(C(=O)N[C@@H](Cc3ccccc3)C(=O)O)c(O)c2C(=O)O1 [ALM-32, ochratoxin B] | 18.9 | 18.9 | 13.5 | 21.6 |  |  |  |  | 
COC(=O)c1ccc2c(c1O)C(=O)OCC2 [ALM-68, 8-hydroxy-1-oxo-isochroman-7-carboxylic acid methyl ester] |  |  |  |  |  | 338 | 270 | 518 | 562
CC(C)(C)OC(=O)[C@H](Cc1ccccc1)NC(=O)c1ccc2c(c1O)C(=O)OCC2 [ALM-69, L-Phenyl Alanine Tert-Butyl Ester Amide of Compound ALM-68] | 18.2 | 14.6 | 21.9 | 72.9 | 14.4 |  |  |  | 
O=C(N[C@@H](Cc1ccccc1)C(=O)O)c1ccc2c(c1O)C(=O)OCC2 [ALM-70, L-Phenyl Alanine Amide of Compound ALM-68] | 8.4 | 1.4 | 18.3 | 42.2 | 32.7 |  |  |  | 
COC(=O)c1ccc2c(c1O)C(=O)OC(C)(C)C2 [ALM-71, 8-hydroxy-3,3-dimethyl-1-oxo-isochroman-7-carboxylic acid methyl ester] |  |  |  |  |  | 400 | 336 | > 799 | > 799
CC1(C)Cc2ccc(C(=O)O)c(O)c2C(=O)O1 [ALM-72, 8-hydroxy-3,3-dimethyl-1-oxo-isochroman-7-carboxylic acid] |  |  |  |  |  | > 846 | > 846 | > 846 | > 846
CC(C)(C)OC(=O)[C@H](Cc1ccccc1)NC(=O)c1ccc2c(c1O)C(=O)OC(C)(C)C2 [ALM-73, L-Phenyl Alanine Tert-Butyl Ester Amide of Compound ALM-71] | 14.8 | 9.1 | 9.1 | 13.7 | 25.3 |  |  |  | 
CC1Cc2ccc3c(c2C(=O)O1)OC(C)(C)OC3=O (stereo not shown) [ALM-75, Acetonide Compound] |  |  |  |  |  | > 762 | > 762 | > 762 | > 762
Racemic Kigelin Oleyl Ester [ALM-2] | > 397 | > 397 | > 397 | > 397 |  |  |  |  | 
Racemic Mellein Oleyl Ester [ALM-17] | > 451 | > 451 | > 451 | > 451 |  |  |  |  | 
